Tests used:
[1] = test system: SLC17A3 (NPT4); settings: OTA extracellular efflux; cited from earlier work
[2] = target: T1, OATP1A2 (Homo sapiens, UniProt P46721); experiment: OTA uptake in OATP1A2-overexpressing HEK293 cells (screen and kinetics)
T1 sequence (P46721 1-670): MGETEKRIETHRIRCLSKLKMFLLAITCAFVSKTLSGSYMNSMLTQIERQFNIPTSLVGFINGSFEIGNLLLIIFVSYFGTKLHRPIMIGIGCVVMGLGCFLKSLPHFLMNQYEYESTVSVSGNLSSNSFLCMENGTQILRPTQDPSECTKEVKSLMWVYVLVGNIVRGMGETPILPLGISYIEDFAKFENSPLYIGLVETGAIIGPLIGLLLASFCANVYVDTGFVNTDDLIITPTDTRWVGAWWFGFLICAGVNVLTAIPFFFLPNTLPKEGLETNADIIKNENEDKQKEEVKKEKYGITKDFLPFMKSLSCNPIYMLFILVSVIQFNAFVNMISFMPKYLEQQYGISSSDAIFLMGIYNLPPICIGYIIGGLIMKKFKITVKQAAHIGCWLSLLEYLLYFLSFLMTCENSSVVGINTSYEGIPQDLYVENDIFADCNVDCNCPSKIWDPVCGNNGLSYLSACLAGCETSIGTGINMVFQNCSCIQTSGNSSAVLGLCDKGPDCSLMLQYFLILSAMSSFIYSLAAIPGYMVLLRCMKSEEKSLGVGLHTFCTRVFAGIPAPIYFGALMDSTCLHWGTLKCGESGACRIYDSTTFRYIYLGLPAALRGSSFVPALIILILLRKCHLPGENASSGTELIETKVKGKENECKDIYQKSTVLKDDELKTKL
Description: (§1) The following experiments were conducted at the University of Washington. Mock HEK293 cells and transporter-overexpressing HEK293 cells (i.e., OAT1–4, OCT2, MATE1/2K, OCTN1, OATP1A2), mock CHO cells, and OCTN2-overexpressing CHO cells were plated in 96 well plates coated with 0.05 mg/mL of poly-D-lysine in 50 μL DPBS at a density of 800,000 cells/mL and grown until reaching over 90% of confluence. […] For uptake experiments in MATE1- and MATE2-K-expressing HEK293 cells, the pH of the incubation buffer was adjusted to 8.0 to facilitate substrate uptake. For uptake experiments in OATP1A2-expressing and OAT4-expressing HEK293 cells, the pH of the incubation buffer was adjusted to 6.5 to mimic pH of the urinary filtrate, as these are apical transporters. The incubation buffer was kept at pH 7.4 for all other transporters. […] Uptake was quenched by removing the substrates/inhibitors and washing the cells 3 times with 200 μL of ice-cold HBSS++. […] The precipitated protein was allowed to dry and subsequently solubilized overnight in 1M NaOH, neutralized with 1 M HCl the next day, and measured by BCA assay.
(§2) All cellular-based assays were conducted in technical triplicate across three independent experiments. […] This cutoff was defined a priori. […] Jnet was then treated as the initial uptake rate, and Km and Vmax values were obtained by fitting the Michaelis–Menten equation to the substrate-concentration data as described above. Intrinsic clearance (CLint) was then calculated by the formula, CLint=Vmax/Km using Vmax and Km values as calculated above. […] At steady-state, the mass balance for intracellular concentrations assuming symmetric passive permeabilities (Papical = Pbasal, taken as Papp from mock assays) and apical efflux gives: Ccell= Cbasal/1+ ke/Pa where Cbasal is the concentration in the basal chamber and ke is the first-order elimination with respect to BCRP. Because the asymmetric efflux ratio ERa is defined as: ERa=1+ ke/Pa

[3] = 0.5 mg/kg oral, rats, cited from earlier work
[4] = test system: human serum albumin (HSA); settings: no reference given; cited from earlier work
[5] = target: T2, OAT4 (Homo sapiens, UniProt Q9NSA0); experiment: OTA uptake in OAT4-overexpressing HEK293 cells (screen and kinetics)
T2 sequence (Q9NSA0 1-550): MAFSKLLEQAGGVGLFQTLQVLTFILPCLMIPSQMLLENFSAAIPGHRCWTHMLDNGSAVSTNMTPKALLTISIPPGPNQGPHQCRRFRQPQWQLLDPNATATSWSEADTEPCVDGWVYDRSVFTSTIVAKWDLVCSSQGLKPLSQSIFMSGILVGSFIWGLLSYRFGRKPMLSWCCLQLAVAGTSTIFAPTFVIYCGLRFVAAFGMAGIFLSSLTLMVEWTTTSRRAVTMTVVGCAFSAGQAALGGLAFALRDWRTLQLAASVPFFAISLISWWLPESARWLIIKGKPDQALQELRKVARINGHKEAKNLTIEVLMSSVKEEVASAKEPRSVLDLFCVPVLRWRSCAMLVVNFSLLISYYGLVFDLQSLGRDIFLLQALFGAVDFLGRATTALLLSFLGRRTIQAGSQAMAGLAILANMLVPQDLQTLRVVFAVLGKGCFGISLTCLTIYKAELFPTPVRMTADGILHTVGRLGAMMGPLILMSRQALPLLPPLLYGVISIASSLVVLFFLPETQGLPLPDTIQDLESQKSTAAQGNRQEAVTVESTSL
Description: as §1, §2

[6] = HEK293, 5 min, 37 °C, pH 6.5, mock-corrected

SMILES: C[C@@H]1Cc2c(Cl)cc(C(=O)N[C@@H](Cc3ccccc3)C(=O)O)c(O)c2C(=O)O1 [OTA, Ochratoxin A]
- Km [1]: 803 µM
- Vmax [2, 6]: 801.0 ± 133.9 pmol/mg/min
- microsomal CLint ([2]; human, other cell line, pH 6.5): 21.6 ± 2.3 µL/min/mg
- Km at 5 min ([2]; human, pH 6.5): 37.3 ± 6.2 µM
- OTA accumulated in kidney tissue ([3]; after 24 h): over 400 pmol/g
- dose recovered in urine and feces ([3]; after 96 h): 15%
- bound to human serum albumin [4]: > 99%
- Km [5, 6]: 6.38 ± 1.45 µM
- Vmax [5, 6]: 96.9 ± 18.8 pmol/mg/min
- microsomal CLint ([5]; human, other cell line, pH 6.5): 15.3 ± 0.8 µL/min/mg
